Measurements: patent US7238689B2, “Isoxazoline derivative and herbicide comprising the same as active ingredient” (Ihara Chemical Industry Co., Ltd., priority 2001, dated 2007)

Legend:
Assay type in all cases: in vivo
Parameters in all cases: scale not given here
[1] = tested on: Setaria viridis (L.) Beauv.; assay: Herbicidal effect by upland field soil treatment; settings: active ingredient 1000 g/ha, examined at 21st day from treatment
Excerpt: (§1) An upland field soil was filled in a plastic pot of 80 cm^2. Seeds of Echinochloa crus-galli (L.) Beauv. var. crusgalli and Setaria viridis (L.) Beauv. were sowed, followed by covering with the same soil. […] Then, breeding was made in a greenhouse, and the herbicidal effect of each wettable powder was examined at the 21st day from the treatment in accordance with the standard shown in Table 21.

[2] = tested on: Echinochloa crus-galli (L.) Beauv. var. crusgalli; assay: Herbicidal effect by upland field soil treatment; settings: active ingredient 1000 g/ha, examined at 21st day from treatment
Excerpt: as §1

[3] = tested on: Echinochloa crus-galli (L.) Beauv. var. crus-galli; assay: Herbicidal effect by upland foliage treatment; settings: active ingredient 1000 g/ha, examined at 14th day from treatment
Method: (§2) A sand was filled in a plastic pot of 80 cm^2. Seeds of Echinochloa crus-galli (L.) Beauv. var. crus-galli and Setaria viridis (L.) Beauv. were sowed. Breeding was made in a greenhouse for 2 weeks. Wettable powders produced in accordance with the Formulation 1 were diluted with water and sprayed on the whole foliage of plants from above the plants using a small sprayer in an amount of 1,000 liters per 1 hectare so that the amount of each active ingredient became 1,000 g per 1 hectare. Then, breeding was made in the greenhouse, and the herbicidal effect of each wettable powder was examined at the 14th day from the treatment in accordance with the standard shown in Table 21.

[4] = tested on: Setaria viridis (L.) Beauv.; assay: Herbicidal effect by upland foliage treatment; settings: active ingredient 1000 g/ha, examined at 14th day from treatment
Method: as §2

[5] = tested on: Monochoria vaginalis (Murm. f.) Presl var. plantaginea (Roxb.) Solms-Laub.; assay: Herbicidal effect by paddy field soil treatment; settings: wettable powder, active ingredient 1000 g/ha, examined at the 21st day from the treatment
Method in brief: (§3)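 Seeds sown in puddled paddy soil under 3 cm of water; the next day wettable powders diluted in water were dropped onto the water surface at 1,000 g active ingredient/ha. Plants grown in a greenhouse, with herbicidal effect scored on day 21 against a rating standard.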

[6] = tested on: Echinochloa oryzicola Vasing; assay: Herbicidal effect by paddy field soil treatment; settings: wettable powder, active ingredient 1000 g/ha, examined at the 21st day from the treatment
Method in brief: as §3

| SMILES | herbicidal effect (index per standard of Table 21), Setaria viridis (L.) Beauv. [1] | herbicidal effect (index per standard of Table 21), Echinochloa curs-galli (L.) Beauv. Var. crus-galli [2] | herbicidal effect (index per standard of Table 21), Echinochloa curs-galli (L.) Beauv. Var. crus-galli [3] | herbicidal effect (index per standard of Table 21), Setaria viridis (L.) Beauv. [4] | Herbicidal effect index, Monochoria vaginalis (Burm. F.) Presl var. plantaginea (Roxb.) Solms-Laub. [5] | Herbicidal effect index, Echinochloa oryzicola Vasing [6] |
| --- | --- | --- | --- | --- | --- | --- |
| CCC(C)n1nc(C(F)(F)F)c(CS(=O)(=O)C2=NOC(C)(C)C2)c1Cl (stereo not drawn) [3-0081] | 5 | 5 | 4 | 4 | 5 | 5 |
| CCC(C)n1nc(Cl)c(CS(=O)(=O)C2=NOC(C)(C)C2)c1C(F)(F)F (stereo not drawn) [3-0082] | 5 | 5 | 4 | 4 | 5 | 5 |
| CC(C)Cn1nc(C(F)(F)F)c(CS(=O)(=O)C2=NOC(C)(C)C2)c1Cl [3-0083] | 5 | 5 | 4 | 4 | 5 | 5 |
| CC(C)Cn1nc(Cl)c(CS(=O)(=O)C2=NOC(C)(C)C2)c1C(F)(F)F [3-0084] | 5 | 5 | 4 | 4 | 5 | 5 |
| CCCCn1nc(C(F)(F)F)c(CS(=O)(=O)C2=NOC(C)(C)C2)c1Cl [3-0085] | 5 | 5 | 4 | 4 | 5 | 5 |
| CCCCn1nc(Cl)c(CS(=O)(=O)C2=NOC(C)(C)C2)c1C(F)(F)F [3-0086] | 5 | 5 | 4 | 4 | 5 | 5 |
| CC1(C)CC(S(=O)(=O)Cc2c(Cl)nn(CC(F)F)c2C(F)(F)F)=NO1 [3-0115] | 5 | 5 | 5 | 4 | 5 | 5 |
| COCn1nc(C(F)(F)F)c(CS(=O)(=O)C2=NOC(C)(C)C2)c1Cl [3-0118] | 5 | 5 | 5 | 4 | 5 | 5 |
| COCn1nc(Cl)c(CS(=O)(=O)C2=NOC(C)(C)C2)c1C(F)(F)F [3-0119] | 5 | 5 | 5 | 4 | 5 | 5 |
| CCOCn1nc(C(F)(F)F)c(CS(=O)(=O)C2=NOC(C)(C)C2)c1Cl [3-0120] | 5 | 5 | 5 | 5 | 5 | 5 |
| CC(=O)CCn1nc(C(F)(F)F)c(CS(=O)(=O)C2=NOC(C)(C)C2)c1Cl [3-0144] | 5 | 5 | 5 | 5 | 5 | 5 |
| Cc1nsc(Cl)c1CS(=O)(=O)C1=NOC(C)(C)C1 [4-0002, [(5-chloro-3-methyl-isothiazol-4-yl)-methylsulfonyl]-5,5-dimethyl-2-isoxazoline] | 5 | 5 | 5 | 4 | 5 | 5 |
| Cc1noc(C)c1CS(=O)(=O)C1=NOC(C)(C)C1 [4-0005] | 5 | 5 | 5 | 4 | 5 | 5 |
| Cc1nn(C)c(CS(=O)(=O)C2=NOC(C)(C)C2)c1Cl [5-0001] | 5 | 5 | 5 | 4 | 5 | 5 |
| CCc1nn(C)c(CS(=O)(=O)C2=NOC(C)(C)C2)c1Cl [5-0002] | 5 | 5 | 5 | 5 | 5 | 5 |
| Cn1ncc(C(F)(F)F)c1CS(=O)(=O)C1=NOC(C)(C)C1 [5-0003] | 5 | 5 | 5 | 4 | 5 | 5 |
| CC1(C)CC(S(=O)(=O)Cc2c(C(F)(F)F)cnn2-c2ccccc2)=NO1 [5-0007] | 5 | 5 | 5 | 5 | 5 | 5 |
| Cc1cc(CS(=O)(=O)C2=NOC(C)(C)C2)no1 [6-0004] | 5 | 5 | 5 | 4 | 5 | 5 |
| Cc1cc[n+]([O-])c(Cl)c1CS(=O)(=O)C1=NOC(C)(C)C1 [7-0008] | 5 | 5 | 5 | 5 | 5 | 5 |
| COc1c(CS(=O)(=O)C2=NOC(C)(C)C2)c(C)cc[n+]1[O-] [7-0009] | 5 | 5 | 4 | 4 | 5 | 5 |
